# Assay results published in BindingDB's records for doi:10.1016/j.bioorg.2015.11.006 (Universiti Teknologi Mara (Uitm), 2016).
# Molecular target: Alpha-glucosidase MAL12 (Saccharomyces cerevisiae (strain ATCC 204508 / S288c), UniProt P53341)
# Assay: Baker's Yeast α-Glucosidase Inhibition Assay
# Conditions: pH 6.8
# Method: The enzyme inhibition was evaluated according to the method previously reported by Rahim et al. [25] with slight modification. Various concentration of test compounds (10 µL) were dissolved in DMSO (ranging from 200 to 6.25 µg/mL) and premixed with 95 µL of 50 mM phosphate buffer (pH 6.8). Then, 25 µL of enzyme(0.0625 U/mL) in phosphate buffer saline was added into each well and the plate was incubated at 37 °C for 10 min. Afterward, 25 µl of PNPG in phosphate buffer saline (5 mM) were added and pre-read of the plate was taken by using a microplate reader (Spectrostar Nano BMG Labtech, Germany). The reaction mixture was then incubated at 37 °C for 30 min and change in absorbance at 405 nm was monitored up to 30 min. For negative control, the test samples were replaced with 10 µL of DMSO and acarbose was used as positive control
# Sequence of Alpha-glucosidase MAL12 (P53341 whole entry): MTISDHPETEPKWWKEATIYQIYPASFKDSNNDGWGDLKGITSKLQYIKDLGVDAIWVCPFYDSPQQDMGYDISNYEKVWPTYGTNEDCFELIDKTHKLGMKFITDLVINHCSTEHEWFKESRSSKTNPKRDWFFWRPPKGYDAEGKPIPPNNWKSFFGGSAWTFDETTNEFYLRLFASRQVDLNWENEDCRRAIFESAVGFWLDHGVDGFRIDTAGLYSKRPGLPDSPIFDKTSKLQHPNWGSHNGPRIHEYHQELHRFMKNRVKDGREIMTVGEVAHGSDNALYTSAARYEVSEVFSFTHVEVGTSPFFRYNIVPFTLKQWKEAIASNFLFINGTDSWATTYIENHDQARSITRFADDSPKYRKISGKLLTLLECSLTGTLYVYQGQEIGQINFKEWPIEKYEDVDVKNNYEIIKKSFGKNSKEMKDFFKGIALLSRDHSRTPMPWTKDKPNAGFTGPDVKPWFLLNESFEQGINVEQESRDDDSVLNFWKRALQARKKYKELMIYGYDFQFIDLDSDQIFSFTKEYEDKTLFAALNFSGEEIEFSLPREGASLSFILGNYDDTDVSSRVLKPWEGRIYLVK
row,IC50,Compound
1,12.5 µM,"Cc1cc2nc(-c3ccc(C(=O)N/N=C/c4ccc(O)c(O)c4)cc3)[nH]c2cc1C [(E)-N'-(3,4-dihydroxybenzylidene)-4-(5,6-dimethyl-1H-benzo[d]imidazol-2-yl) benzohydrazide (7)]"
2,32.1 µM,"Cc1cc2nc(-c3ccc(C(=O)N/N=C/c4ccco4)cc3)[nH]c2cc1C [(E)-4-(5,6-dimethyl-1H-benzo[d]imidazol-2-yl)-N'-(furan-2-ylmethylene) benzohydrazide (21)]"
3,8.4 µM,"Cc1cc2nc(-c3ccc(C(=O)N/N=C/c4cc(O)c(O)c(O)c4)cc3)[nH]c2cc1C [(E)-4-(5,6-dimethyl-1H-benzo[d]imidazol-2-yl)-N'-(3,4,5-trihydroxybenzylidene) benzohydrazide (19)]"
4,8.44 µM,"COc1ccc(/C=N/NC(=O)c2ccc(-c3nc4cc(C)c(C)cc4[nH]3)cc2)c(O)c1 [(E)-4-(5,6-dimethyl-1H-benzo[d]imidazol-2-yl)-N'-(2-hydroxy-4-methoxybenzylidene) benzohydrazide (10)]"
5,29 µM,"COc1ccc(/C=N/NC(=O)c2ccc(-c3nc4cc(C)c(C)cc4[nH]3)cc2)cc1O [(E)-4-(5,6-dimethyl-1H-benzo[d]imidazol-2-yl)-N'-(3-hydroxy-4-methoxybenzylidene) benzohydrazide (9)]"
6,19.3 µM,"Cc1cc2nc(-c3ccc(C(=O)N/N=C/c4ccc([N+](=O)[O-])cc4)cc3)[nH]c2cc1C [(E)-4-(5,6-dimethyl-1H-benzo[d]imidazol-2-yl)-N'-(4-nitrobenzylidene) benzohydrazide (25)]"
7,32.5 µM,"Cc1cc2nc(-c3ccc(C(=O)N/N=C/c4cccc(O)c4)cc3)[nH]c2cc1C [(E)-4-(5,6-dimethyl-1H-benzo[d]imidazol-2-yl)-N'-(3-hydroxybenzylidene) benzohydrazide (2)]"
8,46 µM,"Cc1cc2nc(-c3ccc(C(=O)N/N=C/c4cccnc4)cc3)[nH]c2cc1C [(E)-4-(5,6-dimethyl-1H-benzo[d]imidazol-2-yl)-N'-(pyridin-3-ylmethylene) benzohydrazide (23)]"
9,148 µM,"Cc1cc2nc(-c3ccc(C(=O)N/N=C/c4ccncc4)cc3)[nH]c2cc1C [(E)-4-(5,6-dimethyl-1H-benzo[d]imidazol-2-yl)-N'-(pyridin-4-ylmethylene) benzohydrazide (11)]"
10,22.4 µM,"Cc1cc2nc(-c3ccc(C(=O)N/N=C/c4cccc(Cl)c4)cc3)[nH]c2cc1C [(E)-N'-(3-chlorobenzylidene)-4-(5,6-dimethyl-1H-benzo[d]imidazol-2-yl) benzohydrazide (8)]"
11,158 µM,"Cc1cc2nc(-c3ccc(C(=O)N/N=C/c4cccc(F)c4)cc3)[nH]c2cc1C [(E)-4-(5,6-dimethyl-1H-benzo[d]imidazol-2-yl)-N'-(3-fluorobenzylidene) benzohydrazide (26)]"
12,24.8 µM,"Cc1cc2nc(-c3ccc(C(=O)N/N=C/c4ccccc4C)cc3)[nH]c2cc1C [(E)-4-(5,6-dimethyl-1H-benzo[d]imidazol-2-yl)-N'-(2-methylbenzylidene) benzohydrazide (13)]"
13,9.99 µM,"Cc1cc2nc(-c3ccc(C(=O)N/N=C/c4cccc(O)c4O)cc3)[nH]c2cc1C [(E)-N'-(2,3-dihydroxybenzylidene)-4-(5,6-dimethyl-1H-benzo[d]imidazol-2-yl)benzohydrazide (5)]"
14,24.8 µM,"Cc1cc2nc(-c3ccc(C(=O)N/N=C\c4ccc(Cl)cc4)cc3)[nH]c2cc1C [(Z)-N'-(4-chlorobenzylidene)-4-(5,6-dimethyl-1H-benzo[d]imidazol-2-yl)benzohydrazide (22)]"
15,15.1 µM,"COc1cccc(/C=N/NC(=O)c2ccc(-c3nc4cc(C)c(C)cc4[nH]3)cc2)c1 [(E)-4-(5,6-dimethyl-1H-benzo[d]imidazol-2-yl)-N'-(3-methoxybenzylidene) benzohydrazide (24)]"
16,23.5 µM,"Cc1cccc(/C=N/NC(=O)c2ccc(-c3nc4cc(C)c(C)cc4[nH]3)cc2)c1 [(E)-4-(5,6-dimethyl-1H-benzo[d]imidazol-2-yl)-N'-(3-methylbenzylidene) benzohydrazide (14)]"
17,34.5 µM,"Cc1cc2nc(-c3ccc(C(=O)N/N=C/c4ccc(O)c(Br)c4)cc3)[nH]c2cc1C [(E)-N'-(3-bromo-4-hydroxybenzylidene)-4-(5,6-dimethyl-1H-benzo[d]imidazol-2-yl)benzohydrazide (17)]"
18,8.44 µM,"COc1ccc(O)c(/C=N/NC(=O)c2ccc(-c3nc4cc(C)c(C)cc4[nH]3)cc2)c1 [(E)-4-(5,6-dimethyl-1H-benzo[d]imidazol-2-yl)-N'-(pyridin-4-ylmethylene) benzohydrazide (12)]"
19,18.3 µM,"Cc1ccc(/C=N/NC(=O)c2ccc(-c3nc4cc(C)c(C)cc4[nH]3)cc2)cc1 [(E)-4-(5,6-dimethyl-1H-benzo[d]imidazol-2-yl)-N'-(4-methylbenzylidene) benzohydrazide (16)]"
20,180 µM,"COc1ccc(/C=N/NC(=O)c2ccc(-c3nc4cc(C)c(C)cc4[nH]3)cc2)cc1OC [(E)-N'-(3,4-dimethoxybenzylidene)-4-(5,6-dimethyl-1H-benzo[d]imidazol-2-yl)benzohydrazide (3)]"
21,26 µM,"Cc1cc2nc(-c3ccc(C(=O)N/N=C/c4ccc(O)cc4)cc3)[nH]c2cc1C [(E)-4-(5,6-dimethyl-1H-benzo[d]imidazol-2-yl)-N'-(4-hydroxybenzylidene) benzohydrazide (1)]"
22,18.2 µM,"Cc1cc2nc(-c3ccc(C(=O)N/N=C/c4ccccc4O)cc3)[nH]c2cc1C [(E)-4-(5,6-dimethyl-1H-benzo[d]imidazol-2-yl)-N'-(2-hydroxybenzylidene) benzohydrazide (15)]"
23,8.74 µM,"Cc1cc2nc(-c3ccc(C(=O)N/N=C/c4ccc(O)cc4O)cc3)[nH]c2cc1C [(E)-N'-(2,4-dihydroxybenzylidene)-4-(5,6-dimethyl-1H-benzo[d]imidazol-2-yl) benzohydrazide (6)]"
24,8.74 µM,"Cc1cc2nc(-c3ccc(C(=O)N/N=C/c4cc(O)ccc4O)cc3)[nH]c2cc1C [(E)-N'-(2,5-dihydroxybenzylidene)-4-(5,6-dimethyl-1H-benzo[d]imidazol-2-yl) benzohydrazide (4)]"
25,25.7 µM,"Cc1cc2nc(-c3ccc(C(=O)N/N=C/c4ccccn4)cc3)[nH]c2cc1C [(E)-4-(5,6-dimethyl-1H-benzo[d]imidazol-2-yl)-N'-(pyridin-2-ylmethylene) benzohydrazide (18)]"
26,32.6 µM,"COc1ccc(/C=N/NC(=O)c2ccc(-c3nc4cc(C)c(C)cc4[nH]3)cc2)cc1 [(E)-4-(5,6-dimethyl-1H-benzo[d]imidazol-2-yl)-N'-(4-methoxybenzylidene) benzohydrazide (20)]"
